From paper PMC11134391 (JACS Au, 2024)
pKi: −log10 of the molar value.

Columns and labels:
[1] = target: T1, HDAC8 (Homo sapiens, UniProt Q9BY41); test: HDAC inhibition assay; assay type: biochemical
T1 sequence (Q9BY41 1-377): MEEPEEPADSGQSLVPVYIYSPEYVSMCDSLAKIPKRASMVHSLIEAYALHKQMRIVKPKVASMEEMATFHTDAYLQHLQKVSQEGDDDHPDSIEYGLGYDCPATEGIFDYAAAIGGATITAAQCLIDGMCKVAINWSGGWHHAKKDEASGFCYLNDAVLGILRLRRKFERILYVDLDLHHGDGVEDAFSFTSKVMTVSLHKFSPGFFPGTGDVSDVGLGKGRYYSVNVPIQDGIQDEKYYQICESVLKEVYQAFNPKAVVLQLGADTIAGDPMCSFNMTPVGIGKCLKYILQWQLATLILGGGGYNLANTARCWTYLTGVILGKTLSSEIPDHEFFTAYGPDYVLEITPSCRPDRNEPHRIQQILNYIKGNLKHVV

[2] = target: T2, HDAC6 (Homo sapiens, UniProt Q9UBN7); test: HDAC inhibition assay; assay type: biochemical; conditions: for selectivity for HDAC6 over HDAC8 (between the two enzymes): from Ki values
T2 sequence (Q9UBN7 1-1215): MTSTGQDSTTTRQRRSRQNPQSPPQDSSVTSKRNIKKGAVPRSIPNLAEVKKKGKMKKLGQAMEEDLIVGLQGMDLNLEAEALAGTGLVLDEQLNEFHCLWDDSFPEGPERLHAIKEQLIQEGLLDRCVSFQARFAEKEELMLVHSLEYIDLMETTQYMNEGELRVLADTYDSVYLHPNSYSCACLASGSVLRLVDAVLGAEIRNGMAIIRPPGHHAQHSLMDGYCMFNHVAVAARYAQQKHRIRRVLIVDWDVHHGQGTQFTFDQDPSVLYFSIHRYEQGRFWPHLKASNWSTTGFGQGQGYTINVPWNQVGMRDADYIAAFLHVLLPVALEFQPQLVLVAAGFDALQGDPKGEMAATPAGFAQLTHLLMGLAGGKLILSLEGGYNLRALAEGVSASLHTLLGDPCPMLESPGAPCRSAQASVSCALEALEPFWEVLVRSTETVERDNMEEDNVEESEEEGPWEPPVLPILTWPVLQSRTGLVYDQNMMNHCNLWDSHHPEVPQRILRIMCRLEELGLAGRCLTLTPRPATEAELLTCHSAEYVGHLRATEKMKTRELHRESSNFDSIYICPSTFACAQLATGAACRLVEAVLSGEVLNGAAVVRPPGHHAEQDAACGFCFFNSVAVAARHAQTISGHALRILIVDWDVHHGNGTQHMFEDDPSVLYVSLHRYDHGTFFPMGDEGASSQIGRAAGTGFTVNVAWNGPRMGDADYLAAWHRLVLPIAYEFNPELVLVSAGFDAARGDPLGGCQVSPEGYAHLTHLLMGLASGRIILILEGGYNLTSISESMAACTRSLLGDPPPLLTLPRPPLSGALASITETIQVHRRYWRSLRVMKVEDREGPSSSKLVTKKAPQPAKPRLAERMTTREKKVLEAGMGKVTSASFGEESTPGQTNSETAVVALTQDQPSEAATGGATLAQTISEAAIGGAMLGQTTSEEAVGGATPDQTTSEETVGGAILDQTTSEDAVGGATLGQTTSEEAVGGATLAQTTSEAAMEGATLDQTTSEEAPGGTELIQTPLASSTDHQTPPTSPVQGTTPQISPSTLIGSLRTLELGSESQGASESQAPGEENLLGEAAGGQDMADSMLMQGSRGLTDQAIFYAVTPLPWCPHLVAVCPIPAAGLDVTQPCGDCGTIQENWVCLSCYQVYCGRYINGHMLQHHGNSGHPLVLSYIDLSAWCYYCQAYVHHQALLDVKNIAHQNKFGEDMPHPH

[3] = target: T2, HDAC6; test: HDAC inhibition assay with preincubation, HDAC6; assay type: biochemical; conditions: preincubation 0, 0.5, 1 or 2 h at 37 °C
[4] = test system: lysine acetylation (α-tubulin, H3K18, H3K27, and SMC3) in HEK293T cells; test: Protein acetylation assay; assay type: cell-based, human; conditions: 5 h, 1 or 10 μM, Western blot
[5] = target: T3, HDAC11 (Homo sapiens, UniProt Q96DB2); test: HDAC inhibition assay with preincubation, HDAC11; assay type: biochemical; conditions: preincubation 0, 0.5, 1 or 2 h at 37 °C
T3 sequence (Q96DB2 1-347): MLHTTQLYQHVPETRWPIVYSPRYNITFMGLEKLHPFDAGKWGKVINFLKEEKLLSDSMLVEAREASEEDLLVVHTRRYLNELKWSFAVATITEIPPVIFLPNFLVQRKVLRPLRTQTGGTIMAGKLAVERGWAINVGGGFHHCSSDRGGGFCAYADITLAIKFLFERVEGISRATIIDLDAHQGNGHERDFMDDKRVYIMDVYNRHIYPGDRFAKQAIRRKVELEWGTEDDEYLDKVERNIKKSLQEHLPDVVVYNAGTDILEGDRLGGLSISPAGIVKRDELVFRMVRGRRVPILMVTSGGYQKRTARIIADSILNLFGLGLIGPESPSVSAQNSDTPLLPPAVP

[6] = target: T1, HDAC8; test: Cellular thermal shift assay; assay type: cell-based; conditions: HEK293T cells, 10 µM, 2 h

pKi [1]	selectivity for HDAC6 over HDAC8 (between the two enzymes) [2]	pKi [2]	thermal shift of HDAC8 relative to DMSO control [6]	SMILES	change of IC50 upon preincubation with HDAC6 [3]	acetylation of α-tubulin compared to DMSO control [4]	change of IC50 upon preincubation with HDAC11 [5]
7.66	–	–	–	COc1ccc(OS(=O)(=O)Oc2cccc(C(=O)NO)c2)cc1OC [A17]	–	–	–
–	20 fold	–	–	O=C(NO)c1cc(F)cc(OS(=O)(=O)Oc2ccccc2)c1 [C1]	did not observe any decrease in IC50 value upon preincubation	significant upregulation	–
–	–	–	–	Cc1c(OS(=O)(=O)Oc2ccc(Oc3ccccc3)cc2)cccc1C(=O)NO [D21]	–	–	did not observe any decrease in IC50 value upon preincubation
–	~20 fold	7.85	no shift	O=C(NO)c1cncc(OS(=O)(=O)Oc2ccc3ccccc3c2)c1 [E24]	did not observe any decrease in IC50 value upon preincubation	significant upregulation	–
